pIC50: −log10 of the molar value. Counter-ions that a name gives are not always drawn. Like-named read-outs stand apart in the source and are kept apart here.
System: HCV RNA replication (replicon cell lines Huh-7, 5.2 and ET)
Assay: Cell-Based Luciferase Reporter HCV RNA Replication Assay
Details: Huh-7, 5.2 or ET replicon cells, luciferase counts after 4 days incubation, read-out: IC50

Structure (SMILES) | pIC50 (Hepatitis C virus, Huh-7, 96 h) | pIC50
CC(C)N(C(=O)c1ccc(Cl)cc1Cl)c1cc(C2=CCCCC2)sc1C(=O)O [Compound 31, 5-cyclohex-1-enyl-3-[(2,4-dichloro-benzoyl)-isopropyl-amino]-thiophene-2-carboxylic acid] | 4.60 to 5.30 | –
C[C@H]1CC[C@H](C(=O)N(c2cc(C3=CCCCC3)sc2C(=O)O)C2CCC(OC(=O)N3CCOCC3)CC2)CC1 (relative stereo) [Compound 18, Morpholine-4-carboxylic acid 4-[(2-carboxy-5-cyclohex-1-enyl-thiophen-3-yl)-(trans-4-methyl-cyclohexanecarbonyl)-amino]-cyclohexyl ester] | > 5.30 | –
CC1CCC(C(=O)N(c2cc(C3CCC(O)CC3)sc2C(=O)O)C2CCC(O)CC2)CC1 (mixture of isomers) [Compound 85, 5-(4-cis/trans-hydroxy-cyclohexyl)-3-[(4-trans-hydroxy-cyclohexyl)-(4-trans-methyl-cyclohexanecarbonyl)-amino]-thiophene-2-carboxylic acid] | 4.60 to 5.30 | –
C[C@H]1CC[C@H](C(=O)N(c2cc(C3=CCCCC3)sc2C(=O)O)[C@H]2CC[C@@H](n3cncn3)CC2)CC1 [Compound 41, 5-cyclohex-1-enyl-3-[(trans-4-methyl-cyclohexanecarbonyl)-(cis 4-[1,2,4]triazol-1-yl-cyclohexyl)-amino]-thiophene-2-carboxylic acid] | > 5.30 | –
CCO[C@H]1CC[C@H](N(c2cc(C3=CCCCC3)sc2C(=O)O)C(=O)[C@H]2CC[C@H](C)CC2)CC1 [Compound 22, 5-Cyclohex-1-enyl-3-[(trans-4-ethoxy-cyclohexyl)-(trans-4-methyl-cyclohexanecarbonyl)-amino]-thiophene-2-carboxylic acid] | > 5.30 | –
C[C@H]1CC[C@H](C(=O)N(c2cc(C3=CCCC3)sc2C(=O)O)[C@H]2CC[C@H](O)CC2)CC1 [Compound 16, 5-Cyclopent-1-enyl-3-[(trans-4-hydroxy-cyclohexyl)-(trans-4-methyl-cyclohexanecarbonyl)-amino]-thiophene-2-carboxylic acid] | > 5.30 | –
COCC1CCC(N(C(=O)C2CCC(C)CC2)c2cc(C3=CCCCC3)sc2C(=O)O)CC1 (stereo not drawn) [Compound 132, 5-cyclohex-1-enyl-3-[(4-trans-methoxymethyl-cyclohexyl)-(4-trans-methyl-cyclohexanecarbonyl)-amino]-thiophene-2-carboxylic acid] | – | > 5.30
C[C@H]1CC[C@H](C(=O)N(c2cc(C3=CCCCC3)sc2C(=O)O)[C@H]2CC[C@H](C)CC2)CC1 [Compound 52, 5-cyclohex-1-enyl-3-[(trans-4-methyl-cyclohexanecarbonyl)-(trans-4-methyl-cyclohexyl)-amino]-thiophene-2-carboxylic acid] | > 5.30 | –
COC1CCC(N(C(=O)C2CCC(C)CC2)c2cc(C3CCC(F)CC3)sc2C(=O)O)CC1 (stereo not drawn) [Compound 137, 5-(4-ciz-trans-fluoro-cyclohexyl)-3-[(4-trans-methoxy-cyclohexyl)-(4-trans-methyl-cyclohexanecarbonyl)-amino]-thiophene-2-carboxylic acid] | > 5.30 | –
CCOCO[C@H]1CC[C@H](N(c2cc(C3=CCCCC3)sc2C(=O)O)C(=O)[C@H]2CC[C@H](C)CC2)CC1 [Compound 125, 5-cyclohex-1-enyl-3-[(trans-4-ethoxymethoxy-cyclohexyl)-(trans-4-methyl-cyclohexanecarbonyl)-amino]-thiophene-2-carboxylic acid] | > 5.30 | –
CC1(C)CC=C(c2cc(N(C(=O)[C@H]3CC[C@H](C)CC3)[C@H]3CC[C@@H](n4cncn4)CC3)c(C(=O)O)s2)CC1 [Compound 94, 5-(4,4-dimethyl-cyclohex-1-enyl)-3-[(trans-4-methyl-cyclohexanecarbonyl)-(cis-4-[1,2,4]triazol-1-yl-cyclohexyl)-amino]-thiophene-2-carboxylic acid; hydrochloride] | > 5.30 | –
CC1CCC(C(=O)N(c2cc(C3CCC(C)(C)CC3)sc2C(=O)O)C2CCC(n3cncn3)CC2)CC1 (stereo not drawn) [Compound 118, 5-(4,4-dimethyl-cyclohexyl)-3-[(trans-4-methyl-cyclohexanecarbonyl)-(trans-4-[1,2,4]triazol-1-cyclohexyl)-amino]-thiophene-2-carboxylic acid; hydrochloride] | > 5.30 | –
C[C@H]1CC[C@H](C(=O)N(c2cc(C3=CCCC3)sc2C(=O)O)[C@H]2CC[C@H](O)CC2)CC1 [Compound 3, 5-Cyclopent-1-enyl-3-[(trans-4-hydroxy-cyclohexyl)-(trans-4-methyl-cyclohexanecarbonyl)-amino]-thiophene-2-carboxylic acid] | > 5.30 | –
CC1CCC(C(=O)N(c2cc(C3=CCCCC3)sc2C(=O)O)C2CCN(c3ccccc3)CC2)CC1 (stereo not drawn) [Compound 127, 5-cyclohex-1-enyl-3-[(trams, 4-methyl-cyclohexanecarbonyl)-(1-phenyl-piperidin-4-yl)-amino]-thiophene-2-carboxylic acid] | > 5.30 | –
CC1CCC(C(=O)N(c2cc(C3CCC(=O)CC3)sc2C(=O)O)C2CCC(O)CC2)CC1 (stereo not drawn) [Compound 86, 3-[(4-trans-hydroxy-cyclohexyl)-(4-trans-methyl-cyclohexanecarbonyl)-amino]-5-(4-oxo-cyclohexyl)-thiophene-2-carboxylic acid] | 4.60 to 5.30 | –
CC1CCC(C(=O)N(c2cc(C3=CCCCC3)sc2C(=O)O)C2CC=CCC2)CC1 (stereo not drawn) [Compound 115, RS-5-cyclohex-1-enyl-3-[cyclohex-3-enyl-(4-trans-methyl-cyclohexanecarbonyl)-amino]-thiophene-2-carboxylic acid] | > 5.30 | –
COCC1CCC(N(C(=O)C2CCC(C)CC2)c2cc(C3=CCCCC3)sc2C(=O)O)CC1 (stereo not drawn) [Compound 131, 5-cyclohex-1-enyl-3-[(4-cis-methoxymethyl-cyclohexyl)-(4-trans-methyl-cyclohexanecarbonyl)-amino]-thiophene-2-carboxylic acid] | – | > 5.30
C[C@H]1CC[C@H](C(=O)N(c2ccc3c(c2)OCO3)c2cc(C3=CCCCC3)sc2C(=O)O)CC1 [Compound 136, 3-[benzo[1,3]dioxol-5-yl-(trans-4-methyl-cyclohexanecarbonyl)-amino]-5-cyclohex-1-enyl-thiophene-2-carboxylic acid] | > 5.30 | –
CC1CCC(C(=O)N(c2cc(C3=CCCCC3)sc2C(=O)O)C2CCC3(CC2)CC(=O)N(C)C3)CC1 (stereo not drawn) [Compound 84, 5-cyclohex-1-enyl-3-[(trans-4-methyl-cyclohexanecarbonyl)-cis-(2-methyl-3-oxo-2-aza-spiro[4.5]dec-8-yl)-amino]-thiophene-2-carboxylic acid] | > 5.30 | –
CC(C)C(=O)N1CCC(N(c2cc(C3=CCCCC3)sc2C(=O)O)C(=O)[C@H]2CC[C@H](C)CC2)CC1 [Compound 141, 5-Cyclohex-1-enyl-3-[(1-isobutyryl-piperidin-4-yl)-(trans-4-methylcyclohexanecarbonyl)-amino]-thiophene-2-carboxylic acid] | > 5.30 | –
COc1ccc2c(c1)CC(N(C(=O)C1CCC(C)CC1)c1cc(C3=CCCCC3)sc1C(=O)O)CC2 (stereo not drawn) [Compound 67, RS-5-cyclohex-1-enyl-3-[(7-methoxy-1,2,3,4-tetrahydro-naphthalen-2-yl)-(4-trans-methyl-cyclohexanecarbonyl)-amino]-thiophene-2-carboxylic acid] | > 5.30 | –
C[C@H]1CC[C@H](C(=O)N(c2ccccc2)c2cc(C3=CCCCC3)sc2C(=O)O)CC1 [Compound 10, 5-Cyclohex-1-enyl-3-[(trans-4-methyl-cyclohexanecarbonyl)-phenyl-amino]-thiophene-2-carboxylic acid] | > 5.30 | –
C[C@H]1CC[C@H](C(=O)N(c2cc(C3=CCCCC3)sc2C(=O)O)[C@H]2CC[C@@H](C)CC2)CC1 [Compound 53, 5-cyclohex-1-enyl-3-[(trans-4-methyl-cyclohexanecarbonyl)-(cis-4-methyl-cyclohexyl)-amino]-thiophene-2-carboxylic acid] | > 5.30 | –
COC1CCC(N(C(=O)C2CCC(C)CC2)c2cc(C3CC=C(F)CC3)sc2C(=O)O)CC1 (stereo not drawn) [Compound 123, RS-5-(4-fluoro-cyclohex-3-enyl)-3-[(4-trans-methoxy-cyclohexyl)-(4-trans-methyl-cyclohexanecarbonyl)-amino]-thiophene-2-carboxylic acid] | > 5.30 | –
CC1CCC(C(=O)N(c2cc(C3=CCCCC3)sc2C(=O)O)C2CCC3C(=O)N(C)C(=O)C3C2)CC1 (stereo not drawn) [Compound 72, RS-5-cyclohex-1-enyl-3-[(trans-methyl-cyclohexanecarbonyl)-(2-methyl-1,3-dioxo-octahydro-isoindol-5-yl)-amino]-thiophene-2-carboxylic acid] | > 5.30 | –
C[C@H]1CC[C@H](C(=O)N(c2cc(C3=CCCCC3)sc2C(=O)O)[C@H]2CC[C@H](n3cncn3)CC2)CC1 [Compound 48, 5-cyclohex-1-enyl-3-[(trans-4-methylcyclohexanecarbonyl)-(trans-4-[1,2,4]triazol-1-yl-cyclohexyl)-amino]-thiophene-2-carboxylic acid; hydrochloride] | > 5.30 | –
CC1CCC(C(=O)N(c2cc(C3=CCCCC3)sc2C(=O)O)C2CCc3ccccc3C2)CC1 (stereo not drawn) [Compound 66, RS-5-cyclohex-1-enyl-3-[(4-trans-methyl-cyclohexanecarbonyl)-(1,2,3,4-tetrahydro-naphthalen-2-yl)-amino]-thiophene-2-carboxylic acid] | > 5.30 | –
C[C@H]1CC[C@H](C(=O)N(c2cc(C3=CCCCCC3)sc2C(=O)O)[C@H]2CC[C@H](O)CC2)CC1 [Compound 5, 5-Cyclohept-1-enyl-3-[(trans-4-hydroxy-cyclohexyl)-(trans-4-methyl-cyclohexanecarbonyl)-amino]-thiophene-2-carboxylic acid] | > 5.30 | –
CC(C)N(C(=O)c1ccc(Cl)cc1Cl)c1cc(C2=CCCC2)sc1C(=O)O [Compound 15, 5-Cyclopent-1-enyl-3-[(2,4-dichloro-benzoyl)-isopropyl-amino]-thiophene-2-carboxylic acid] | < 4.60 | –
C[C@H]1CC[C@H](C(=O)N(c2cc(C3=CCCCC3)sc2C(=O)O)[C@H]2CC[C@H](O)CC2)CC1 [Compound 1, 5-Cyclohex-1-enyl-3-[(trans-4-hydroxy-cyclohexyl)-(trans-4-methyl-cyclohexanecarbonyl)-amino]-thiophene-2-carboxylic acid] | > 5.30 | –
